Each molecule was assayed against T1, hT2R54 (Homo sapiens, UniProt P59534) (assay: Cell-based assay for measuring hT2R54 inhibition (FLIPR calcium, Fluo4AM, acetaminophen as bitter agonist)). Conditions: Table 4; cells stably expressing hT2R54 and a promiscuous G protein; read-out: hT2R54 IC50.
T1 construct: expressed in transfected cells; it overexpresses a promiscuous G protein
T1 sequence (P59534 1-338): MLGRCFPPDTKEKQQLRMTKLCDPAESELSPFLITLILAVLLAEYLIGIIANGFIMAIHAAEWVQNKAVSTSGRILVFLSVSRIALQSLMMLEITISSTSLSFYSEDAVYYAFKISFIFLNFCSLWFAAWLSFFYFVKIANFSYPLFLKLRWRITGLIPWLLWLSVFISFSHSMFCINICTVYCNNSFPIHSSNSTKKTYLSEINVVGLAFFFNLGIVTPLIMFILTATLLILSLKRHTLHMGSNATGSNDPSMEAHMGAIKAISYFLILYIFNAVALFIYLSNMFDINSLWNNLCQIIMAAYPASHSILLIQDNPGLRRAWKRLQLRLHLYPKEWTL
Summary of the method: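 The readout was FLIPR calcium (Fluo4AM, 10 s baseline, 3 min post-addition) in cells stably carrying hT2R54 plus a promiscuous G protein, with host cells lacking hT2R54 as counter-control. Acetaminophen concentration series were tested with and without set test-compound levels. Half-maximal block of the agonist response gave the EC50/IC50.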
With `CCN(CCCOC)CC(=O)Nc1cc2c(cc1C(C)=O)OCO2` [compound 427] the IC50 was 373 nM.
Molecule `CCOC(=O)C1CN(C(=O)OC(C)(C)C)CCN1CC(=O)Nc1cc2c(cc1C(C)=O)OCO2` (centres unmarked) [compound 428] has an IC50 of 650 nM.
With `CC(=O)c1cc2c(cc1NC(=O)CN1CCCC(NC(=O)OC(C)(C)C)C1)OCO2` (centres unmarked) [compound 429] the IC50 was 1280 nM.
For `CC(=O)c1cc2c(cc1NC(=O)CN1CCC(NC(=O)OC(C)(C)C)CC1)OCO2` [compound 430], the IC50 was 162 nM.
With `CC(=O)c1cc2c(cc1NC(=O)C(C)N1CCN(C(=O)OC(C)(C)C)CC1)OCO2` (centres unmarked) [compound 431] the IC50 was 900 nM.
`CC(=O)c1cc2c(cc1NC(=O)CCN1CCOCC1)OCO2` [compound 432] showed an IC50 of 1920 nM.
`CC(=O)c1cc2c(cc1NC(=O)C(C)N1CCC(O)CC1)OCCO2` (centres unmarked) [compound 433] was tested, and the IC50 was 220 nM.
With `COC(=O)c1cc2c(cc1NC(=O)CN1CCC(O)CC1)OCO2` [compound 434] the IC50 was 248 nM.
`COC(=O)c1cc2c(cc1NC(=O)CN1CCC(OC)CC1)OCO2` [compound 435] was tested, and the IC50 was 419 nM.
`COC(=O)c1cc2c(cc1NC(=O)CN1CCOCC1)OCO2` [compound 436] was tested, and the IC50 was 287 nM.
Molecule `COC(=O)c1cc2c(cc1NC(=O)CN1CCN(C(=O)OC(C)(C)C)CC1)OCO2` [compound 437] has an IC50 of ~1000 nM.
`COC(=O)c1cc2c(cc1NC(=O)CN1CCOCC1)OCCO2` [compound 438] gave an IC50 of 198 nM.
For `COC(=O)c1cc2c(cc1NC(=O)CN1CCOCC1)CCCC2` [compound 439], the IC50 was ~2000 nM.
`COc1cc2c(cc1NC(=O)CN1CCCCC1)OCO2` [compound 440] showed an IC50 of 1820 nM.
`COc1cc2c(cc1NC(=O)C(C)N1CCOCC1)OCO2` (centres unmarked) [compound 441] was tested, and the IC50 was 1000 nM.
For `COc1cc2c(cc1NC(=O)CN1CCSCC1)OCO2` [compound 442], the IC50 was 200 nM.
`COc1cc2c(cc1NC(=O)CN1CC(C)OC(C)C1)OCO2` (centres unmarked) [compound 443] gave an IC50 of 322 nM.
For `CCOC(=O)C1CN(CC(=O)Nc2cc3c(cc2OC)OCO3)CCO1` (centres unmarked) [compound 444], the IC50 was 505 nM.
In the case of `CCOC(=O)C1COCCN1CC(=O)Nc1cc2c(cc1OC)OCO2` (centres unmarked) [compound 445], the IC50 is reported as 526 nM.
In the case of `COc1cc2c(cc1NC(=O)C(C)N1CCN(C(=O)OC(C)(C)C)CC1)OCO2` (centres unmarked) [compound 446], the IC50 is reported as 190 nM.
For `CCc1cc2c(cc1NC(=O)CN1CCOCC1)OCO2` [compound 447], the IC50 was > 10000 nM.
With `CCc1cc2c(cc1NC(=O)CN1CCN(C(=O)OC(C)(C)C)CC1)OCO2` [compound 448] the IC50 was 700 nM.
With `COc1cc2c(cc1NC(=O)CN1CCOCC1)CCC2` [compound 449] the IC50 was 804 nM.

Same assay, conditions: Table 5; cells stably expressing hT2R54 and a promiscuous G protein; read-out: hT2R54 IC50
`CCNC(=O)C1CCCN(CC(=O)Nc2cc3c(cc2OC)OCO3)C1` (centres unmarked) [compound 450] gave an IC50 of 668 nM.
In the case of `COc1cc2c(cc1NC(=O)CN(C)CCC(=O)NCc1ccccc1)OCO2` [compound 451], the IC50 is reported as 406 nM.
Molecule `COc1cc2c(cc1NC(=O)CN1CCCC(C(=O)NCc3ccccc3)C1)OCO2` (centres unmarked) [compound 452] has an IC50 of 603 nM.
Molecule `CNC(=O)C1CCCN(CC(=O)Nc2cc3c(cc2OC)OCO3)C1` (centres unmarked) [compound 453] has an IC50 of 969 nM.

Same assay, conditions: Table 8; read-out: hT2R54 IC50
Work on `CC(=O)c1cc2c(cc1NC(=O)CC1CCN(C(=O)c3ccncc3)CC1)OCO2` [compound 454] yielded an IC50 of 300 nM.
Work on `CC(=O)c1cc2c(cc1NC(=O)CC1CCCN(C(=O)c3cc(O)cc(O)c3)C1)OCO2` (centres unmarked) [compound 455] yielded an IC50 of 6000 nM.
`CC(=O)c1cc2c(cc1NC(=O)CC1CCCN(C(=O)c3ccc(O)c(O)c3)C1)OCO2` (centres unmarked) [compound 456] showed an IC50 of 1300 nM.
For `CC(=O)c1cc2c(cc1NC(=O)CC1CCCN(C(=O)c3ccc(O)cc3O)C1)OCO2` (centres unmarked) [compound 457], the IC50 was 140 nM.
`CC(=O)c1cc2c(cc1NC(=O)CC1CCCN(C(=O)c3cc(O)ccc3O)C1)OCO2` (centres unmarked) [compound 458] showed an IC50 of 160 nM.
`CC(=O)c1cc2c(cc1NC(=O)CC1CCN(C(=O)c3cnn[nH]3)CC1)OCO2` [compound 459] gave an IC50 of 95 nM.
`CC(=O)c1cc2c(cc1NC(=O)CC1CCN(C(=O)c3ncn[nH]3)CC1)OCO2` [compound 460] showed an IC50 of 300 nM.
`CC(=O)c1cc2c(cc1NC(=O)CC1CCN(C(=O)c3cc[nH]n3)CC1)OCO2` [compound 461] showed an IC50 of 150 nM.
In the case of `CC(=O)c1cc2c(cc1NC(=O)CC1CCN(C(=O)c3ncc[nH]3)CC1)OCO2` [compound 462], the IC50 is reported as 30 nM.
With `CC(=O)c1cc2c(cc1NC(=O)CC1CCN(C(=O)c3c[nH]c(C)n3)CC1)OCO2` [compound 463] the IC50 was 400 nM.
With `CC(=O)c1cc2c(cc1NC(=O)CC1CCN(C(=O)c3n[nH]cc3C)CC1)OCO2` [compound 464] the IC50 was 200 nM.
Molecule `CC(=O)c1cc2c(cc1NC(=O)CC1CCN(C(=O)c3nc(C)c[nH]3)CC1)OCO2` [compound 465] has an IC50 of 46 nM.
For `CC(=O)c1cc2c(cc1NC(=O)CC1CCN(C(=O)c3cc(C)on3)CC1)OCO2` [compound 466], the IC50 was 700 nM.
In the case of `CC(=O)c1cc2c(cc1NC(=O)CC1CCN(C(=O)c3ccc(C)o3)CC1)OCO2` [compound 467], the IC50 is reported as 58 nM.
`COCc1ccc(C(=O)N2CCC(CC(=O)Nc3cc4c(cc3C(C)=O)OCO4)CC2)o1` [compound 468] was tested, and the IC50 was 70 nM.
Work on `COCC(=O)N1CCC(CC(=O)Nc2cc3c(cc2C(C)=O)OCO3)CC1` [compound 469] yielded an IC50 of 500 nM.
`COCCOCC(=O)N1CCC(CC(=O)Nc2cc3c(cc2C(C)=O)OCO3)CC1` [compound 470] gave an IC50 of 700 nM.
In the case of `CC(=O)c1cc2c(cc1NC(=O)CC1CCN(C(=O)[C@H]3CCCO3)CC1)OCO2` [compound 471], the IC50 is reported as 300 nM.
With `CC(=O)c1cc2c(cc1NC(=O)CC1CCN(C(=O)[C@@H]3CCCO3)CC1)OCO2` [compound 472] the IC50 was 300 nM.
For `CC(=O)c1cc2c(cc1NC(=O)CC1CCN(C(=O)C3CCN(C)C3)CC1)OCO2` (centres unmarked) [compound 473], the IC50 was > 50000 nM.
`CC(=O)c1cc2c(cc1NC(=O)CC1CCN(C(=O)[C@H]3CCC(=O)O3)CC1)OCO2` [compound 474] showed an IC50 of 130 nM.
`CC(=O)c1cc2c(cc1NC(=O)CC1CCN(C(=O)CC3CCCO3)CC1)OCCO2` (centres unmarked) [compound 475] was tested, and the IC50 was 300 nM.
`CC(=O)c1cc2c(cc1NC(=O)CC1CCN(C(=O)CC3CCCO3)CC1)OCO2` (centres unmarked) [compound 476] showed an IC50 of 300 nM.
With `CC(=O)c1cc2c(cc1NC(=O)CC1CCN(C(=O)CC3CCOC3)CC1)OCO2` (centres unmarked) [compound 477] the IC50 was 400 nM.
With `CC(=O)c1cc2c(cc1NC(=O)CC1CCN(C(=O)CN3CCCC3)CC1)OCO2` [compound 479] the IC50 was > 10000 nM.
`COC(=O)c1cc2c(cc1NC(=O)CC1CCCN(C(C)=O)C1)OCO2` (centres unmarked) [compound 480] was tested, and the IC50 was 1400 nM.
`COC(=O)c1cc2c(cc1NC(=O)CC1CCCN(C(=O)C3CCCO3)C1)OCO2` (centres unmarked) [compound 481] gave an IC50 of 2200 nM.
`COC(=O)c1cc2c(cc1NC(=O)CC1CCN(C(=O)C3CCCO3)CC1)OCO2` (centres unmarked) [compound 482] gave an IC50 of 1400 nM.
`COCc1ccc(C(=O)N2CCC(CC(=O)Nc3cc4c(cc3C(=O)OC)OCO4)CC2)cc1` [compound 483] gave an IC50 of 640 nM.
Molecule `COC(=O)c1cc2c(cc1NC(=O)CC1CCN(C(=O)c3ccncc3)CC1)OCO2` [compound 484] has an IC50 of 460 nM.
`CC(=O)c1cc2c(cc1NC(=O)CC1CCN(C(=O)c3cccnc3)CC1)OCCO2` [compound 485] was tested, and the IC50 was 240 nM.
Molecule `COCc1cccc(C(=O)N2CCC(CC(=O)Nc3cc4c(cc3C(C)=O)OCCO4)CC2)c1` [compound 486] has an IC50 of 188 nM.
Molecule `CC(=O)c1cc2c(cc1NC(=O)CC1CCN(C(=O)c3ccc(CO)o3)CC1)OCCO2` [compound 487] has an IC50 of 250 nM.
With `COCc1ccc(C(=O)N2CCC(CC(=O)Nc3cc4c(cc3C(C)=O)OCCO4)CC2)s1` [compound 488] the IC50 was 15 nM.
For `COCc1ccc(C(=O)N2CCC(CC(=O)Nc3cc4c(cc3C(C)=O)OCCO4)CC2)o1` [compound 489], the IC50 was 150 nM.
`CC(=O)c1cc2c(cc1NC(=O)CC1CCN(C(=O)c3cc(CO)on3)CC1)OCCO2` [compound 490] was tested, and the IC50 was 160 nM.
For `COCc1cc(C(=O)N2CCC(CC(=O)Nc3cc4c(cc3C(C)=O)OCCO4)CC2)no1` [compound 491], the IC50 was 160 nM.
`CC(=O)c1cc2c(cc1NC(=O)CC1CCN(C(=O)C3CCCO3)CC1)OCCO2` (centres unmarked) [compound 493] was tested, and the IC50 was 450 nM.
Work on `CC(=O)c1cc2c(cc1NC(=O)CC1CCN(C(=O)[C@@H]3CCCO3)CC1)OCCO2` [compound 494] yielded an IC50 of 300 nM.
Molecule `CC(=O)c1cc2c(cc1NC(=O)CC1CCN(C(=O)[C@H]3CCCO3)CC1)OCCO2` [compound 495] has an IC50 of 200 nM.
With `COc1cc2c(cc1NC(=O)CC1CCN(C(C)=O)CC1)OCO2` [compound 496] the IC50 was > 10000 nM.
For `COc1cc2c(cc1NC(=O)CC1CCN(C(=O)C3CCCO3)CC1)OCO2` (centres unmarked) [compound 497], the IC50 was > 10000 nM.
`COc1cc2c(cc1NC(=O)CC1CCN(C(=O)Cc3ccco3)CC1)OCO2` [compound 498] was tested, and the IC50 was > 10000 nM.
With `COc1cc2c(cc1NC(=O)CC1CCN(C(=O)c3nc(C)c[nH]3)CC1)OCO2` [compound 499] the IC50 was > 10000 nM.
With `COc1cc2c(cc1NC(=O)CC1CCN(C(=O)c3ccc(C)o3)CC1)OCO2` [compound 500] the IC50 was 4000 nM.
For `COc1cc2c(cc1NC(=O)CC1CCN(C(=O)c3ccncc3)CC1)OCO2` [compound 501], the IC50 was > 50000 nM.
`CC(=O)c1cc2c(cc1NC(=O)CC1CCCN(C(=O)c3ccncc3)C1)OCO2` (centres unmarked) [compound 502] gave an IC50 of 170 nM.
`COCc1ccc(C(=O)N2CCCC(CC(=O)Nc3cc4c(cc3C(C)=O)OCO4)C2)cc1` (centres unmarked) [compound 503] was tested, and the IC50 was 99 nM.
With `CC(=O)c1cc2c(cc1NC(=O)CC1CCCN(C(=O)c3nc(C)c[nH]3)C1)OCO2` (centres unmarked) [compound 504] the IC50 was 159 nM.
Work on `CC(=O)c1cc2c(cc1NC(=O)CC1CCCN(C(=O)c3ncc[nH]3)C1)OCO2` (centres unmarked) [compound 505] yielded an IC50 of 130 nM.

Source: patent US12295396B2, “Antagonists of T2R54 and compositions and uses thereof” (Firmenich Incorporated, priority 2018, dated 2025)
